ChEMBL document CHEMBL3286257, “Development of second generation EP2 antagonists with high selectivity” (Eur J Med Chem, 2014)
Converted amounts (≈) assume the structure as drawn.

Key:
C6 = assay: (§1) Cytotoxicity against rat C6 cells; type: cell-based; settings: c6
[1] = Metabolic stability of the compound in mouse liver microsomes assessed as compound remaining at 10 uM after 60 mins; type: ADME; settings: read-out: Stability
[2] = Metabolic stability of the compound in human liver microsomes assessed as compound remaining at 10 uM after 15 mins; type: ADME; settings: read-out: Stability
EP2 receptor = assay: Therapeutic index, ratio of CC50 for rat C6 cells to KB for EP2 receptor (unknown origin); type: cell-based; settings: read-out: TI
Homo sapiens [3] = species on record: Homo sapiens; assay: Selectivity index, ratio of KB for EP4 receptor (unknown origin) to KB for EP2 receptor (unknown origin)
[4] = target: Prostacyclin receptor (Homo sapiens) (UniProt P43119); assay: Antagonist activity at IP receptor (unknown origin) expressed in rat C6 cells by TR-FRET assay; type: cell-based
[5] = Metabolic stability of the compound in human liver microsomes assessed as compound remaining at 10 uM after 60 mins; type: ADME; settings: read-out: Stability
[6] = target: Prostaglandin E2 receptor EP2 subtype (Homo sapiens) (UniProt P43116); assay: Antagonist activity at EP2 receptor (unknown origin) expressed in rat C6 cells assessed as inhibition of PGE2-induced response; type: cell-based
[7] = target: Prostaglandin E2 receptor EP4 subtype (Homo sapiens) (UniProt P35408); assay: Antagonist activity at EP4 receptor (unknown origin) expressed in rat C6 cells assessed as inhibition of PGE2-induced response; type: cell-based
[8] = target: T1, Prostaglandin D2 receptor (Homo sapiens) (UniProt Q13258); assay: Antagonist activity at DP1 receptor (unknown origin) expressed in rat C6 cells by TR-FRET assay; type: cell-based
T1 sequence (whole entry): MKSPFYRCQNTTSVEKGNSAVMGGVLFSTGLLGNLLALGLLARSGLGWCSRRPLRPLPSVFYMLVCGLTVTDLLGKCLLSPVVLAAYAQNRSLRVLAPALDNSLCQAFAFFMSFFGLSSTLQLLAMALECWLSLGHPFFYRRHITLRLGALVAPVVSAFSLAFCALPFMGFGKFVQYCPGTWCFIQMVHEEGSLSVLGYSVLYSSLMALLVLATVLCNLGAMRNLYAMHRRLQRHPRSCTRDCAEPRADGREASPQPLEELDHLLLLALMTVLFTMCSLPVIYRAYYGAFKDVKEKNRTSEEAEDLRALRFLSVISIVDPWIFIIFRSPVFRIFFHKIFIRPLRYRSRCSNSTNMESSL

Homo sapiens [9] = species on record: Homo sapiens; assay: Selectivity index, ratio of KB for DP1 receptor (unknown origin) to KB for EP2 receptor (unknown origin)
Homo sapiens [10] = species on record: Homo sapiens; assay: Selectivity index, ratio of KB for IP receptor (unknown origin) to KB for EP2 receptor (unknown origin)
[11] = Metabolic stability of the compound in mouse liver microsomes assessed as compound remaining at 10 uM after 15 mins; type: ADME; settings: read-out: Stability
[12] = Metabolic stability of the compound in human liver microsomes assessed as compound remaining at 10 uM after 30 mins; type: ADME; settings: read-out: Stability
[13] = Metabolic stability of the compound in mouse liver microsomes assessed as compound remaining at 10 uM after 30 mins; type: ADME; settings: read-out: Stability
[14] = Aqueous solubility of the compound by nephelometry method; type: physicochemical; settings: buffer
[15] = target: Prostaglandin E2 receptor EP2 subtype (Homo sapiens) (UniProt P43116); assay: Competitive antagonist activity at human EP2 receptor assessed as inhibition of PGE2-induced response
[16] = as §1; type: cell-based; settings: C6 cells
[17] = AUC (infinity) in C57Bl/6 mouse at 5 mg/kg, ip; type: ADME, organism-based; design: time infinity, dose 5 mg/kg, route intraperitoneal; settings: plasma
[18] = Cmax in C57Bl/6 mouse at 10 mg/kg, po; type: ADME, organism-based; design: dose 10 mg/kg, route oral; settings: in vivo
[19] = Terminal half life in C57Bl/6 mouse at 5 mg/kg, ip; type: ADME, organism-based; design: dose 5 mg/kg, route intraperitoneal; settings: in vivo, read-out: beta t1/2 (converted)
[20] = Cmax in C57Bl/6 mouse at 5 mg/kg, ip; type: ADME, organism-based; design: dose 5 mg/kg, route intraperitoneal; settings: in vivo
[21] = AUClast in C57Bl/6 mouse at 5 mg/kg, ip; type: ADME, organism-based; design: time 0 - last, dose 5 mg/kg, route intraperitoneal; settings: plasma

Chain of Prostaglandin E2 receptor EP2 subtype (Homo sapiens) (P43116 whole entry): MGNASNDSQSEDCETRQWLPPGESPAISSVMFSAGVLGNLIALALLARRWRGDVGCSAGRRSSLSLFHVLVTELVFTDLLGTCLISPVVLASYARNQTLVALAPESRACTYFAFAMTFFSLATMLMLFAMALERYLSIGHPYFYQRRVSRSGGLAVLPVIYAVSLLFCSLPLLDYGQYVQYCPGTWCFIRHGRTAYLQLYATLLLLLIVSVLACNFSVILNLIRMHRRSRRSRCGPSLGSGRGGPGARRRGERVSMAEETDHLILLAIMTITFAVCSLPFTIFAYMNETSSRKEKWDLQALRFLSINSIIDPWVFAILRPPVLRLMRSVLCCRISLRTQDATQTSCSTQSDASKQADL
Chain of Prostacyclin receptor (Homo sapiens) (P43119 whole entry): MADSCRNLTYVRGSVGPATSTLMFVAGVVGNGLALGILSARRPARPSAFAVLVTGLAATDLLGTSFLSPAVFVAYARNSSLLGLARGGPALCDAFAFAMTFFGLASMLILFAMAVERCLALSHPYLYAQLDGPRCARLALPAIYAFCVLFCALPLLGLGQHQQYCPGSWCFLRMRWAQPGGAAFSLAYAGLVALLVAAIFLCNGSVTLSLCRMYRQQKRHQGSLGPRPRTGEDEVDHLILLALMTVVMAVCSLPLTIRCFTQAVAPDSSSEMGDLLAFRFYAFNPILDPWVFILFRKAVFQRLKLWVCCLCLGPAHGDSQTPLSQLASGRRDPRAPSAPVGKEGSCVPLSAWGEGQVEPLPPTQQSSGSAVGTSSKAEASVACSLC
Chain of Prostaglandin E2 receptor EP4 subtype (Homo sapiens) (P35408 whole entry): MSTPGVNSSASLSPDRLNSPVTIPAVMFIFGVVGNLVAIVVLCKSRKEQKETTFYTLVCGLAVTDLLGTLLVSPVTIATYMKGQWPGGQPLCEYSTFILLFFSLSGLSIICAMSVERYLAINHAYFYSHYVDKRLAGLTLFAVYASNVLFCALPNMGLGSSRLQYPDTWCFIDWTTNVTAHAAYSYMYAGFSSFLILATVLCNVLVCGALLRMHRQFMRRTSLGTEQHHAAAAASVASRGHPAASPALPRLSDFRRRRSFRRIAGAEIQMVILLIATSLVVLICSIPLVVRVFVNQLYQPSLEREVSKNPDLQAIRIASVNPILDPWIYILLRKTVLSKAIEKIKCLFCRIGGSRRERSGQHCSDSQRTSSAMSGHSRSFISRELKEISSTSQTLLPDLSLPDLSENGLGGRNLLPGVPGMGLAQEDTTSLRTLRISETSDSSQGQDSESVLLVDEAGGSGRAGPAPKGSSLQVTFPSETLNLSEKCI

Row | remaining at 1 h, 10 µM [1] | remaining at […], 10 µM [2] | Ratio (Homo sapiens [3]) | Kb [4] | remaining at 1 h, 10 µM [5] | Kb [6] | Kb [7] | Kb [8] | Ratio (Homo sapiens [9]) | Ratio (Homo sapiens [10]) | remaining at […], 10 µM [11] | remaining at 0.5 h, 10 µM [12] | remaining at 0.5 h, 10 µM [13] | solubility kinetic [14] | Kb [15] | SMILES | CC50 (C6) | selectivity ratio (EP2 receptor) | further results
1 | 0% | 58% | 2190 | 1.98 µM | 22% | 9.6 nM | 21 µM | 5.21 µM | 533 | 206 | 8% | 38% | 5% | 67 µM (≈ 24.4 µg/mL) | 16.1 nM | Cc1cc2ccccc2n1CCNC(=O)c1ccc(N2CCOCC2)cc1 | 289 µM | 30100 | 
2 | 6% | 40% | 1320 | 1.12 µM | 5% | 11.9 nM | 15.5 µM | 3.55 µM | 298 | 95 | 30% | 20% | 26% | < 25 µM |  | CCCN(CCC)c1ccc(C(=O)NCCn2c(C)cc3ccccc32)cc1 | 332 µM | 28100 | 
3 |  |  | 565 | 5.6 µM |  | 25.7 nM | 14.5 µM | 2.2 µM | 85 | 217 |  |  |  |  |  | Cc1cc2ccccc2n1CCNC(=O)c1ccc(N2CCOCC2)c(F)c1 |  | > 19400 | CC50 [16]: > 500 µM
4 | 2% | 66% | 2620 | 18.1 µM | 31% | 26.8 nM | 70.3 µM | 4.62 µM | 172 | 675 | 35% | 49% | 12% | 160 µM (≈ 60.4 µg/mL) |  | Cc1cc2ccccc2n1CCNC(=O)c1ccc(N2CCC(O)CC2)cc1 | 163 µM | 6080 | 

The next lines start with the compound.

Row | SMILES | remaining at 1 h, 10 µM [1] | remaining at […], 10 µM [2] | Ratio (Homo sapiens [3]) | Kb [4] | remaining at 1 h, 10 µM [5] | Kb [6] | Kb [7] | Kb [8] | Ratio (Homo sapiens [9]) | Ratio (Homo sapiens [10]) | remaining at […], 10 µM [11] | remaining at 0.5 h, 10 µM [12] | remaining at 0.5 h, 10 µM [13] | solubility kinetic [14] | Kb [15] | CC50 (C6) | selectivity ratio (EP2 receptor) | further results
5 | Cc1cc2ccccc2n1CCNC(=O)c1ccc(N2CCCCCC2)cc1 | 12% | 66% | 1040 | 8.5 µM | 28% | 22.6 nM | 23.6 µM | 7.72 µM | 342 | 375 | 49% | 64% | 37% | < 25 µM |  | 327 µM | 14500 | 
6 | CCN(CC)c1ccc(C(=O)NCCn2c(C)cc3ccccc32)cc1 | 3% | 19% | 11600 | 8 µM | 4% | 2.7 nM | 31.3 µM | 3.19 µM | 1220 | 2960 | < 14% | 9% | 9% | < 25 µM | 17.5 nM | 320 µM | 119000 | 
7 | CCN(CC)c1ccc(C(=O)NCCc2c(C)[nH]c3ccccc23)cc1 | 5% | 40% | 6940 |  | 5% | 6.9 nM | 48 µM | 9.48 µM | 1370 |  | 34% | 20% | 19% | < 25 µM | 16.3 nM |  | > 72500 | CC50 [16]: > 500 µM
8 | Cc1cc2ccccc2n1CCNC(=O)c1ccc(N2CCC(C(=O)O)CC2)cc1 | 86% | 97% |  |  | 95% | 89.7 nM |  |  |  |  | 97% | 97% | 92% | > 750 µM | 97 nM |  |  | 
9 | Cc1cc2ccccc2n1CCNC(=O)c1ccc(-c2nnn[nH]2)cc1 | 57% | 96% |  |  | 73% |  |  | 0.66 µM |  |  | 85% | 87% | 75% | 257 µM (≈ 89 µg/mL) | 16.4 nM |  |  | CC50 [16]: > 300 µM; AUC(0-inf) [17]: 1600 ng·h/mL; Cmax [18]: 134 nM; half-life [19]: 18 min; Cmax [20]: 2040 ng/mL; AUC(0-t) [21]: 1580 ng·h/mL
10 | Cc1cc2ccccc2n1CCNC(=O)c1ccc(N2CCCC2)cc1 | 18% | 22% | 1160 | 14.2 µM | 1.4% | 24.7 nM | 28.7 µM | > 10 µM | > 516 | 570 | 52% | 12% | 32% | < 25 µM |  | 337 µM | 16100 | 
11 | Cc1cc2ccccc2n1CCNC(=O)c1ccc(N2CCCCC2)cc1 | 7% | 67% | 3210 | 3.4 µM | 21% | 9.4 nM | 30.2 µM | 2.57 µM | 273 | 360 | 24% | 42% | 18% | < 25 µM |  | 315 µM | 33500 | 
